± gives the expanded uncertainty stated by the source.
Legend:
[1] = Liquid
[2] = φn = volume fraction of the nth substance listed; conditions: 101 kPa, Liquid; for viscosity: Capillary tube (Ostwald / Ubbelohde) method; for mass density: Pycnometric method

| viscosity ([1]; 298.15 K, 101.33 kPa, Capillary tube (Ostwald / Ubbelohde) method) | mass density ([1]; 298.15 K, 101.33 kPa, Pycnometric method) | Normal boiling temperature ([1]; Distillation) | viscosity ([2]; 298.15 K, φ2 = 0.3) | viscosity ([2]; 298.15 K, φ2 = 0.6) | viscosity ([2]; 298.15 K, φ2 = 0.9) | mass density ([2]; 298.15 K, φ2 = 0.3) | mass density ([2]; 298.15 K, φ2 = 0.6) | mass density ([2]; 298.15 K, φ2 = 0.9) | viscosity ([2]; 308.15 K, φ2 = 0.3) | viscosity ([2]; 308.15 K, φ2 = 0.6) | viscosity ([2]; 308.15 K, φ2 = 0.9) | mass density ([2]; 308.15 K, φ2 = 0.3) | mass density ([2]; 308.15 K, φ2 = 0.6) | mass density ([2]; 308.15 K, φ2 = 0.9) | Compound |
| --- | --- | --- | --- | --- | --- | --- | --- | --- | --- | --- | --- | --- | --- | --- | --- |
| 0.575 ± 0.012 mPa·s | 1058.6 ± 1.2 kg/m3 | 75 ± 1 °C | – | – | – | – | – | – | – | – | – | – | – | – | C1COCO1 [1,3-dioxolane] |
| – | – | – | 0.9716 ± 0.19 mPa·s | 1.357 ± 0.27 mPa·s | 0.9415 ± 0.19 mPa·s | 1049.2 ± 6 kg/m3 | 1039.1 ± 6 kg/m3 | 1009.2 ± 6 kg/m3 | 0.9314 ± 0.19 mPa·s | 1.133 ± 0.23 mPa·s | 0.822 ± 0.16 mPa·s | 1041.1 ± 6 kg/m3 | 1030.7 ± 6 kg/m3 | 1003.3 ± 6 kg/m3 | C1COCO1 [1,3-dioxolane] + O |
